How the values were obtained:
[1] = system: Acinetobacter baumannii; test: Antimicrobial activity against Acinetobacter baumannii ATCC 17978 harboring plasmid WH1266 by Etest; assay type: functional
[2] = system: Acinetobacter baumannii; test: Antimicrobial activity against Acinetobacter baumannii isolate A expressing beta-lactamase OXA-164 isolated from tracheal secretion of patient by vitek 2 system
[3] = system: Acinetobacter baumannii; test: Antimicrobial activity against Acinetobacter baumannii isolate K expressing beta-lactamase OXA-58 isolated from blood culture of patient by vitek 2 system
[4] = system: Acinetobacter baumannii; test: Antimicrobial activity against Acinetobacter baumannii isolate F expressing beta-lactamase OXA-164 isolated from tracheostoma of patient by Etest
[5] = system: Acinetobacter baumannii; test: Antimicrobial activity against Acinetobacter baumannii isolate I expressing beta-lactamase OXA-58 isolated from tracheal secretion of patient by Etest
[6] = system: Acinetobacter baumannii; test: Antimicrobial activity against Acinetobacter baumannii by vitek 2 system
[7] = system: Acinetobacter baumannii; test: Antimicrobial activity against Acinetobacter baumannii isolate J expressing beta-lactamase OXA-58 isolated from bedsore by Etest
[8] = system: Escherichia coli; test: Antimicrobial activity against Escherichia coli NEB 5-alpha harboring plasmid WH1266 by Etest; assay type: functional
[9] = system: Acinetobacter baumannii; test: Antimicrobial activity against Acinetobacter baumannii ATCC 19606 harboring plasmid WH1266 by Etest; assay type: functional; conditions: ATCC 19606 = CIP 70.34 = JCM 6841
[10] = system: Acinetobacter baumannii; test: Antimicrobial activity against Acinetobacter baumannii isolate E expressing beta-lactamase OXA-164 isolated from tracheal secretion of patient by vitek 2 system
[11] = system: Acinetobacter baumannii; test: Antimicrobial activity against Acinetobacter baumannii ATCC 19606 harboring beta-lactamase OXA-58 by Etest; assay type: functional; conditions: ATCC 19606 = CIP 70.34 = JCM 6841
[12] = system: Acinetobacter baumannii; test: Antimicrobial activity against Acinetobacter baumannii isolate C expressing beta-lactamase OXA-164 isolated from tracheal secretion of patient by vitek 2 system
[13] = system: Acinetobacter baumannii; test: Antimicrobial activity against Acinetobacter baumannii ATCC 19606 harboring beta-lactamase OXA-164 by Etest; assay type: functional; conditions: ATCC 19606 = CIP 70.34 = JCM 6841
[14] = system: Acinetobacter baumannii; test: Antimicrobial activity against Acinetobacter baumannii isolate F expressing beta-lactamase OXA-164 isolated from tracheostoma of patient by vitek 2 system
[15] = system: Acinetobacter baumannii; test: Antimicrobial activity against Acinetobacter baumannii isolate L expressing beta-lactamase OXA-58 isolated from tracheal secretion of patient by Etest
[16] = system: Acinetobacter baumannii; test: Antimicrobial activity against Acinetobacter baumannii ATCC 17978 harboring beta-lactamase OXA-58 by Etest; assay type: functional
[17] = system: Acinetobacter baumannii; test: Antimicrobial activity against Acinetobacter baumannii isolate D expressing beta-lactamase OXA-164 isolated from tracheal secretion of patient by Etest
[18] = system: Acinetobacter baumannii; test: Antimicrobial activity against Acinetobacter baumannii isolate G expressing beta-lactamase OXA-58 isolated from tracheal secretion of patient by vitek 2 system
[19] = system: Acinetobacter baumannii; test: Antimicrobial activity against Acinetobacter baumannii isolate H expressing beta-lactamase OXA-58 isolated from tracheal secretion of patient by vitek 2 system
[20] = system: Acinetobacter baumannii; test: Antimicrobial activity against Acinetobacter baumannii isolate G expressing beta-lactamase OXA-58 isolated from tracheal secretion of patient by Etest
[21] = system: Acinetobacter baumannii; test: Antimicrobial activity against Acinetobacter baumannii isolate J expressing beta-lactamase OXA-58 isolated from bedsore by vitek 2 system
[22] = system: Acinetobacter baumannii; test: Antimicrobial activity against Acinetobacter baumannii isolate I expressing beta-lactamase OXA-58 isolated from tracheal secretion of patient by vitek 2 system
[23] = system: Escherichia coli; test: Antimicrobial activity against Escherichia coli NEB 5-alpha harboring beta-lactamase OXA-58 by Etest; assay type: functional
[24] = system: Acinetobacter baumannii; test: Antimicrobial activity against Acinetobacter baumannii isolate L expressing beta-lactamase OXA-58 isolated from tracheal secretion of patient by vitek 2 system
[25] = system: Acinetobacter baumannii; test: Antimicrobial activity against Acinetobacter baumannii isolate D expressing beta-lactamase OXA-164 isolated from tracheal secretion of patient by vitek 2 system
[26] = system: Acinetobacter baumannii; test: Antimicrobial activity against Acinetobacter baumannii isolate E expressing beta-lactamase OXA-164 isolated from tracheal secretion of patient by Etest
[27] = system: Acinetobacter baumannii; test: Antimicrobial activity against Acinetobacter baumannii isolate A expressing beta-lactamase OXA-164 isolated from tracheal secretion of patient by Etest
[28] = system: Acinetobacter baumannii; test: Antimicrobial activity against Acinetobacter baumannii isolate M expressing beta-lactamase OXA-58 isolated from tracheal secretion of patient by Etest
[29] = system: Acinetobacter baumannii; test: Antimicrobial activity against Acinetobacter baumannii isolate M expressing beta-lactamase OXA-58 isolated from tracheal secretion of patient by vitek 2 system
[30] = system: Acinetobacter baumannii; test: Antimicrobial activity against Acinetobacter baumannii isolate B expressing beta-lactamase OXA-164 isolated from tracheal secretion of patient by vitek 2 system
[31] = system: Acinetobacter baumannii; test: Antimicrobial activity against Acinetobacter baumannii isolate B expressing beta-lactamase OXA-164 isolated from tracheal secretion of patient by Etest
[32] = system: Escherichia coli; test: Antimicrobial activity against Escherichia coli NEB 5-alpha harboring beta-lactamase OXA-164 by Etest; assay type: functional
[33] = system: Acinetobacter baumannii; test: Antimicrobial activity against Acinetobacter baumannii ATCC 17978 harboring beta-lactamase OXA-164 by Etest; assay type: functional
[34] = system: Acinetobacter baumannii; test: Antimicrobial activity against Acinetobacter baumannii isolate C expressing beta-lactamase OXA-164 isolated from tracheal secretion of patient by Etest
[35] = system: Acinetobacter baumannii; test: Antimicrobial activity against Acinetobacter baumannii isolate H expressing beta-lactamase OXA-58 isolated from tracheal secretion of patient by Etest
[36] = system: Acinetobacter baumannii; test: Antimicrobial activity against Acinetobacter baumannii isolate K expressing beta-lactamase OXA-58 isolated from blood culture of patient by Etest

Measured: MIC

C[C@@H](O)[C@H]1C(=O)N2C(C(=O)O)=C(SCCNC=N)C[C@H]12 [IMIPENEM ANHYDROUS]
≥ 64 µg/mL: [5] | [7] | [15] | [20] | [28] | [35] | [36]
32 µg/mL: [4] | [17] | [26] | [27] | [31] | [34]
0.19 µg/mL: [8]
> 32 µg/mL: [11] | [13] | [16] | [33]
8 µg/mL: [2] | [6]
0.125 µg/mL: [9]
0.5 µg/mL: [23]
0.25 µg/mL: [1] | [32]
≥ 16 µg/mL: all other assays above
